Assay results from patent US20110207751A1, “HETEROCYCLIC COMPOUNDS AND USES AS ANTICANCER AGENTS” (priority 2010, published 2011).
Counter-ions that a name gives are not always drawn.

Assays:
[1] = system: A549 cells (human lung carcinoma cell line); assay: Inhibition of cell proliferation, RT-CES cell index; type: cell-based; conditions: 72 hr post compound treatment, read-out: calculated IC50
Text: (§1) The biological activity of compounds disclosed herein was monitored and profiled using the Real-Time Cell Electronic Sensing (RT-CES®) system from ACEA Biosciences, Inc. The RT-CES system utilizes cell-substrate impedance technology to monitor cellular behavior inside tissue culture wells in a microtiter plate format. The technology features in the integration of molecular and cell biology with microelectronics and is based on the electronic detection of biological assay process. The details of this cell electronic sensing technology and associated devices, systems and methods of use are described in U.S. Pat. No. 7,167,585; U.S. Pat. No. 7,468,255; PCT publication number WO 2004/010102; U.S. Pat. No. 7,470,533; and U.S. Pat. No. 7,459,303, each of which is incorporated herein by reference. Additional details of RT-CES technology are further disclosed in U.S. Pat. No. 7,468,255.
(§2) For measurement of cell-substrate or cell-electrode impedance using RT-CES technology, microelectrodes having appropriate geometries are fabricated onto the bottom surfaces of microtiter plate or similar device, facing into the wells. […] When there are changes to the biological status of the cells analogue electronic readout signals are measured automatically and in real time, and are converted to digital signals for processing and for analysis. In a RT-CES system, a cell index (arbitrary representation of change in impedance) is automatically derived and provided based on measured electrode impedance values. […]
(§3) To quantify cell status based on the measured cell-electrode impedance, a parameter termed Cell Index is derived. Cell Index is a quantitative measure of the status of the cells in an electrode-containing well. […]
(§4) A549 cells (human lung carcinoma cell line) were seeded into wells of 96 well E-plate devices (Roche) with an initial seeding density of 5000 cells per well and were pre-incubated in incubator under standard cell culture condition for about 24 hours. […] The cell status was monitored prior to and after the compound addition using RT-CES system (ACEA Biosciences). […]

[2] = system: H596 cells (human adenosquamous lung carcinoma cell line); assay: Inhibition of cell proliferation, xCelligence cell index; type: cell-based; conditions: NCI-H596, 72 hr post compound treatment, read-out: calculated IC50
Text: as §1, §2, §3
as §4, with “H596” for “A549”, “(human adenosquamous” for “(human”, “xCelligence” for “RT-CES”, “(Roche).” for “(ACEA Biosciences).”

[3] = system: SW620 cells (human colon cancer cell line); assay: as above; type: cell-based; conditions: SW-620, 72 hr post compound treatment, read-out: calculated IC50
Text: The biological activity of compounds disclosed herein was monitored and profiled using the Real-Time Cell Electronic Sensing (RT-CES®) system from ACEA Biosciences, Inc. The RT-CES system utilizes cell-substrate impedance technology to monitor cellular behavior inside tissue culture wells in a microtiter plate format. The technology features in the integration of molecular and cell biology with microelectronics and is based on the electronic detection of biological assay process. […]
as §2, §3

[4] = system: A172 cells (human brain cancer cell line); assay: as above; type: cell-based; conditions: A 172, 72 hr post compound treatment, read-out: calculated IC50
Text: For measurement of cell-substrate or cell-electrode impedance using RT-CES technology, microelectrodes having appropriate geometries are fabricated onto the bottom surfaces of microtiter plate or similar device, facing into the wells. Cells are introduced into the wells of the devices, and make contact to and attach to the electrode surfaces. The presence, absence or change of properties of cells affects the electronic and ionic passage on the electrode sensor surfaces. Measuring the impedance between or among electrodes provides important information about biological status of cells present on the sensors. When there are changes to the biological status of the cells analogue electronic readout signals are measured automatically and in real time, and are converted to digital signals for processing and for analysis. In a RT-CES system, a cell index (arbitrary representation of change in impedance) is automatically derived and provided based on measured electrode impedance values. […]
A172 cells (human brain cancer cell line) were seeded into wells of 96 well E-plate devices (Roche) with an initial seeding density of 5000 cells per well and were pre-incubated in incubator under standard cell culture condition for about 24 hours. […] The cell status was monitored prior to and after the compound addition using xCelligence system (Roche). […]

[5] = system: MAP-rich tubulin; assay: In vitro microtubule assembly assay; type: biochemical; conditions: absorbance at 405 nm
Experimental: In vitro microtubule assembly assay. Microtubule polymerization was conducted in a 96-well microtiter plate with MAP-rich tubulin and various concentrations of COMPOUND O in a buffer containing 80 mM PIPES pH 6.9, 0.5 mM EGTA, 2 mM MgCl2, 1 mM GTP, 10% glycerol and 4% (v/v) dimethyl sulfoxide (DMSO) based on the HTS-tubulin polymerization assay kit protocol (Cytoskeleton). The increase in absorbance was measured at 405 nm a Beckman Multimode DTX880 plate reader at 37° C. and recorded every 60 seconds for 30 minutes.

Row | IC50 [1] [µM] | IC50 [2] [µM] | IC50 [3] [µM] | IC50 [4] [µM] | Structure (SMILES) | effect on tubulin polymerization ([5]; 0.04 μM) | effect on tubulin polymerization, concentration dependence ([5]; various concentrations) | effect on tubulin polymerization ([5]; 5 μM) | inhibition of tubulin polymerization compared with control sample ([5]; 5 μM)
1 | 0.0109 | 0.0379 | 0.00265 | 0.0116 | CCc1ccc(Nc2nc(-c3c(C)nc4sccn34)cs2)cc1 [COMPOUND O, 2-(4-ethylphenyl)amino-4-(6-methylimidazo[2,1-b]thiazol-5-yl)-thiazole monohydrobromide] | no inhibition | inhibited in a concentration-dependent manner | – | –
2 | 0.0053 | 0.0125 | 0.000998 | 0.00446 | CC(=O)O[C@H]1C(=O)[C@@]2(C)[C@H]([C@H](OC(=O)c3ccccc3)[C@]3(O)C[C@H](OC(=O)[C@H](O)[C@@H](NC(=O)c4ccccc4)c4ccccc4)C(C)=C1C3(C)C)[C@]1(OC(C)=O)CO[C@@H]1C[C@@H]2O [paclitaxel] | – | – | further enhanced compared to that of the negative control | –
3 | 0.0618 | 0.0369 | – | 0.0013 | CC[C@]1(O)C[C@H]2CN(CCc3c([nH]c4ccccc34)[C@@](C(=O)OC)(c3cc4c(cc3OC)N(C=O)[C@H]3[C@@](O)(C(=O)OC)[C@H](OC(C)=O)[C@]5(CC)C=CCN6CC[C@]43[C@@H]65)C2)C1 [vincristine] | – | – | – | more than 50%
